Results taken from paper PMC8620908, “Design, Synthesis, In Vitro Anticancer Evaluation and Molecular Modelling Studies of 3,4,5-Trimethoxyphenyl-Based Derivatives as Dual EGFR/HDAC Hybrid Inhibitors” (Pharmaceuticals, 2021).
Where “and” joins values, the source holds several entries; their conditions need not be identical. Equal entries are not always repeated. Entries after “also recorded” stand apart in the source; their conditions may differ.

What was measured:
EGFR [1] = molecular target: EGFR (Homo sapiens, UniProt P00533); assay: EGFR-TK inhibition, cell-free assay; type: biochemical
Caspase-3 = Caspase-3 level assay in HepG2 cancer cell line; type: cell-based, human
Caspase-8 = Caspase-8 level assay in HepG2 cancer cell line; type: cell-based, human
Bax = Bax level assay in HepG2 cancer cell line; type: cell-based
Bcl-2 = Bcl-2 level assay in HepG2 cancer cell line; type: cell-based; conditions: HepG2, versus control
HepG2 cancer cell line [2] = assay: Flow cytometric cell cycle analysis; type: cell-based
HepG2 cancer cell line [3] = assay: Cell apoptosis assay, Annexin V/PI flow cytometry; type: cell-based
Method: Apoptosis was determined by flow cytometry based on the Annexin-V-fluoresce in isothiocyanate (FITC) and propidium iodide (PI) staining kit (BD Pharmingen, San Diego, CA, USA). See Section 4.2.5 in Supplementary Materials.
4.2.5. Cell apoptosis assay
Apoptosis was determined by flow cytometry based on the Annexin-V-fluoresce in isothiocyanate (FITC) and propidium iodide (PI) staining kit (BD Pharmingen, San Diego, USA). Apoptotic cells were defined as Annexin-V-positive. Cells were grown to approximately ∼70% confluence and exposed to different concentrations of compounds (0, 2, 4, 6 and8 μmol/L) for 24 h. Treated cells were trypsinized, washed twice with PBS and transferred into micro centrifuge tubes for centrifugation at1000 rpm for 5 min at room temperature, then resuspended in binding buffer, 5 μL of FITC and PI were added to per eppendorf tube, cells were vortexed, incubated for 15 min at room temperature in dark. Subsequently, cells were analyzed by flow cytometry (Becton Dickinson, Franklin Lakes, USA).
4.3. Statistical analysis
Computerized GraphPad Prism software was used to statistically analyzed data using one-way ANOVA test followed by Tukey’s as post ANOVA for multiple comparison at P ≤.05. Data were presented as mean ± SEM. […]

EGFR [4] = assay: Western blot assay, EGFR in HepG2; type: cell-based; conditions: HepG2, 4b used at its IC50 of 0.536 µM
Method: (§1) Western blot assay was carried out according to the previously reported protocol.

HDAC6 [5] = assay: Western blot assay, HDAC6 in HepG2; type: cell-based; conditions: HepG2, 4b used at its IC50 of 0.536 µM
Method: as §1

A549 = assay: Antiproliferative MTT assay, A549; conditions: Homo sapiens, A549, read-out: Antiproliferative Activity IC50 ± SEM, A549
MCF-7 = assay: Antiproliferative MTT assay, MCF-7; conditions: Homo sapiens, MCF7, read-out: Antiproliferative Activity IC50 ± SEM, MCF-7
HepG2 = assay: Antiproliferative MTT assay, HepG2; conditions: Homo sapiens, HepG2, read-out: Antiproliferative Activity IC50 ± SEM, HepG2
HCT116 = assay: Antiproliferative MTT assay, HCT116; conditions: Homo sapiens, HCT-116, read-out: Antiproliferative Activity IC50 ± SEM, HCT116
HDAC1 = HDAC1 (Homo sapiens, UniProt Q13547); assay: In vitro HDAC inhibition assay, HDAC1
HDAC2 = HDAC2 (Homo sapiens, UniProt Q92769); assay: In vitro HDAC inhibition assay, HDAC2
HDAC4 = HDAC4 (Homo sapiens, UniProt P56524); assay: In vitro HDAC inhibition assay, HDAC4
HDAC6 [6] = molecular target: T1, HDAC6 (Homo sapiens, UniProt Q9UBN7); assay: In vitro HDAC inhibition assay, HDAC6
T1 sequence (Q9UBN7 1-1215): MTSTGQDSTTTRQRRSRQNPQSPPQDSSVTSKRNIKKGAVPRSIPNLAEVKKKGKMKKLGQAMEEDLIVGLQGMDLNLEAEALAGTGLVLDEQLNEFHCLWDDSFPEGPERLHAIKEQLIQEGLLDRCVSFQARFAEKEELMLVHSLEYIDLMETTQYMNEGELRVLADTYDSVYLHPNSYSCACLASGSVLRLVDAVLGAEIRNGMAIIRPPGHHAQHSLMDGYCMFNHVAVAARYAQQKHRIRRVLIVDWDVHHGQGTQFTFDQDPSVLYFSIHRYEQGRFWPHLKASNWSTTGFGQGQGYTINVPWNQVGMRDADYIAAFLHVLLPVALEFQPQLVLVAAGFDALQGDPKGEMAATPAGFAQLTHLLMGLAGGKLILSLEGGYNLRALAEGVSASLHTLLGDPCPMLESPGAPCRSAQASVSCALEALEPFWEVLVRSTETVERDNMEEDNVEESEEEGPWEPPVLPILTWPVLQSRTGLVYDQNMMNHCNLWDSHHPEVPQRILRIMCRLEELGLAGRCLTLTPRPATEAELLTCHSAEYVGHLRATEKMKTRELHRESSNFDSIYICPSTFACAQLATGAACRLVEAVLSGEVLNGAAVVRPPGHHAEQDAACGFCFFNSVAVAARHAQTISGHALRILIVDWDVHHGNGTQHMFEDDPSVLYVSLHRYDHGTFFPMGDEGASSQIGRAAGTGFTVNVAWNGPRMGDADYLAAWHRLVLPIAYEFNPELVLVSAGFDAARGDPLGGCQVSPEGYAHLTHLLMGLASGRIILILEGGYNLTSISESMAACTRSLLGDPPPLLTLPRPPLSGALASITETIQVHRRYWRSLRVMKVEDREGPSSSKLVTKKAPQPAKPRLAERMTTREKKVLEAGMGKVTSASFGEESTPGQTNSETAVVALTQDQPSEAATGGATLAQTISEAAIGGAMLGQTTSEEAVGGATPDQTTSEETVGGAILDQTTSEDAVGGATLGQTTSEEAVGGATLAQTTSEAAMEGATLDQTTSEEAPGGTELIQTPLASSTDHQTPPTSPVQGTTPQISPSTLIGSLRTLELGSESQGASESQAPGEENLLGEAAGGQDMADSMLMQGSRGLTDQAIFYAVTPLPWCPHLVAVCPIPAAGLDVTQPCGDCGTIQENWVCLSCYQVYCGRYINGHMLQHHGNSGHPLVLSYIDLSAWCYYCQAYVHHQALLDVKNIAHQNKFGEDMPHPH

HDAC8 = molecular target: T2, HDAC8 (Homo sapiens, UniProt Q9BY41); assay: In vitro HDAC inhibition assay, HDAC8
T2 sequence (Q9BY41 1-377): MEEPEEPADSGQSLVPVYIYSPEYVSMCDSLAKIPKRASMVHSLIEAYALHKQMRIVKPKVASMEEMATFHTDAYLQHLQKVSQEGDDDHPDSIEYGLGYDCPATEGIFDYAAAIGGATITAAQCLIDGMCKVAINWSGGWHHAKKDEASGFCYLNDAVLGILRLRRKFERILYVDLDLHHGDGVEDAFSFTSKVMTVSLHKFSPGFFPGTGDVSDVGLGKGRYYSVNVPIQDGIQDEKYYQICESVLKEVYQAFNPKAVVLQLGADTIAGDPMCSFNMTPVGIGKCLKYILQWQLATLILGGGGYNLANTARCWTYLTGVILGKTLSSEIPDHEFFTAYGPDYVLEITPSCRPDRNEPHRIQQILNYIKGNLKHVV

HDAC1, sequence (Q13547 whole entry): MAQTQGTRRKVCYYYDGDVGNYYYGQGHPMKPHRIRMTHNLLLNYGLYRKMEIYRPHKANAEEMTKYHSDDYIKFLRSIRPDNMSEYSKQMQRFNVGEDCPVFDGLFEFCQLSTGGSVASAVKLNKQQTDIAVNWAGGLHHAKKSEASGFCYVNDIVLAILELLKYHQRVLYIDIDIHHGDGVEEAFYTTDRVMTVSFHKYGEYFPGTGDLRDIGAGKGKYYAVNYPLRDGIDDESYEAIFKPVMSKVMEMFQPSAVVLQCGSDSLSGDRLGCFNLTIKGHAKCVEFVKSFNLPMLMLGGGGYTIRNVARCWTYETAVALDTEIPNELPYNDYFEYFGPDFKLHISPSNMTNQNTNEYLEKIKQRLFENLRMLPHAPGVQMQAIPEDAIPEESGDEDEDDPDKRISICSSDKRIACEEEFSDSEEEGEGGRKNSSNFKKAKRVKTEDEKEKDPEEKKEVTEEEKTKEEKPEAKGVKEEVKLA
HDAC4, sequence (P56524 whole entry): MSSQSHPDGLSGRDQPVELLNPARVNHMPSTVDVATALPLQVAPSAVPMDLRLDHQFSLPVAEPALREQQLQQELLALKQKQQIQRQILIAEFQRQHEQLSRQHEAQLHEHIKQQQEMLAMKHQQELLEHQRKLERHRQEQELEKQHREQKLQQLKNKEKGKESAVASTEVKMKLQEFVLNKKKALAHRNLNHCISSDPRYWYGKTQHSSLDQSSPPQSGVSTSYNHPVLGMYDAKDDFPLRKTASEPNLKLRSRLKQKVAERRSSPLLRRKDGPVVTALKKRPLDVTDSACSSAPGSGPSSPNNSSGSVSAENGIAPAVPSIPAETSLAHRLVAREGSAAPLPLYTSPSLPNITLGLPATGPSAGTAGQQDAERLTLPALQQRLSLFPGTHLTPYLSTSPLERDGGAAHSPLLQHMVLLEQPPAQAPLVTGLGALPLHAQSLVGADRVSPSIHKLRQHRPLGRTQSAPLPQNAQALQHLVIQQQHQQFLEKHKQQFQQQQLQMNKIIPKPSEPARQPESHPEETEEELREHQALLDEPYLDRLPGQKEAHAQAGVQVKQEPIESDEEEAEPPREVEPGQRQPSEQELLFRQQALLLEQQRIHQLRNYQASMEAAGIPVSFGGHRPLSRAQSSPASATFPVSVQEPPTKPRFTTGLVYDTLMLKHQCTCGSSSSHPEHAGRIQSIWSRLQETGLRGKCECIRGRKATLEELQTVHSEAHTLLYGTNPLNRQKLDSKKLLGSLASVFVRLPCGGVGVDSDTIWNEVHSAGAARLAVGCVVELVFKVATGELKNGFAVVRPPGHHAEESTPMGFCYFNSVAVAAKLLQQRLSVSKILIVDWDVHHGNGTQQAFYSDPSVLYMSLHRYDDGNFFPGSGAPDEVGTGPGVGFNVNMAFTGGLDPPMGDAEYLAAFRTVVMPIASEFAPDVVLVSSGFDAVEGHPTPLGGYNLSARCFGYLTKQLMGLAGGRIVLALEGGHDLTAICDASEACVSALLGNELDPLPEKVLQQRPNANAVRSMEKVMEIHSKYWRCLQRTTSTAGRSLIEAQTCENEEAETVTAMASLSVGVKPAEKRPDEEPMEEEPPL
EGFR (Homo sapiens, UniProt P00533), sequence (P00533 25-1210): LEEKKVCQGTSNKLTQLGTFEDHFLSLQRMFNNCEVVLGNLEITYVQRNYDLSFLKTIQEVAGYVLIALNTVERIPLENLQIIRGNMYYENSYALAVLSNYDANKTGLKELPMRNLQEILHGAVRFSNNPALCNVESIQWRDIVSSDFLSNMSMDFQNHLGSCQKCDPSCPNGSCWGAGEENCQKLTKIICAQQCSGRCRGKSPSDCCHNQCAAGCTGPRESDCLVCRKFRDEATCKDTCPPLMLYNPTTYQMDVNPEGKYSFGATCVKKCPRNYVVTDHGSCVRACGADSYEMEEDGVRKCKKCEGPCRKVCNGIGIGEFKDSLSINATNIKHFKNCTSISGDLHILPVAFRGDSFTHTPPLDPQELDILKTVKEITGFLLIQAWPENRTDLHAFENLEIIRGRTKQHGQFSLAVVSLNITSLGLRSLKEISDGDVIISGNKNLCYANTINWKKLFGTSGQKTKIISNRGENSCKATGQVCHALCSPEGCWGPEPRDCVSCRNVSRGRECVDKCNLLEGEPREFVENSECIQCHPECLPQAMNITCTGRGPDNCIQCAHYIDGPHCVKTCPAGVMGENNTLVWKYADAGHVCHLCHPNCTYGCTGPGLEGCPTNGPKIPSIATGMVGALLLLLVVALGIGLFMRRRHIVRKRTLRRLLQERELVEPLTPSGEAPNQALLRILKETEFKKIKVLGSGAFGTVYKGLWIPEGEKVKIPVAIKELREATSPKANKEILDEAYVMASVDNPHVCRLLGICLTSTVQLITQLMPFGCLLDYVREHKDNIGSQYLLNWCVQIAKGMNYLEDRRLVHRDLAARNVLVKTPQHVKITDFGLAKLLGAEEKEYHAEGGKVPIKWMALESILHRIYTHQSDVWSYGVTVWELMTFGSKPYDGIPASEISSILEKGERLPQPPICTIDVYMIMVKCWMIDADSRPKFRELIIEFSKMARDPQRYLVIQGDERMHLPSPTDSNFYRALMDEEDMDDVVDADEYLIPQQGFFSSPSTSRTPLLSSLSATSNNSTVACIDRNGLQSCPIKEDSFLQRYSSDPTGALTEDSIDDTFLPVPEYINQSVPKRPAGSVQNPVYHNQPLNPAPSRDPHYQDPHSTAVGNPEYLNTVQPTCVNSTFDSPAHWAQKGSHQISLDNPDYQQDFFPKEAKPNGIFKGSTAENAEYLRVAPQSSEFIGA
HDAC2, sequence (Q92769 whole entry): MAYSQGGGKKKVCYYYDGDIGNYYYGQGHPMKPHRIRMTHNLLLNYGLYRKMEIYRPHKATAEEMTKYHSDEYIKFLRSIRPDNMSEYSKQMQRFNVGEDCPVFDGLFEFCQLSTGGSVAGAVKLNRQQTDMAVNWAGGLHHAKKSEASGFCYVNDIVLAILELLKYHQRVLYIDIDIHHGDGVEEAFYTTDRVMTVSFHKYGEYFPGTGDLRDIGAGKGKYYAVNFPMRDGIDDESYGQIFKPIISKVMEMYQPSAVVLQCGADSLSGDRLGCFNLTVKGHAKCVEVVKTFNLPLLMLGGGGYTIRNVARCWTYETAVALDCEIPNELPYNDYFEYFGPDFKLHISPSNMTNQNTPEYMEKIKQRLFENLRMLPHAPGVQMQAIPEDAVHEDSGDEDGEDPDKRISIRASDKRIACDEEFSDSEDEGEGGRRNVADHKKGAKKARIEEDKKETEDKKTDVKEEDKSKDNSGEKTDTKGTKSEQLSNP

## COc1cc(/C=C/C(=O)c2ccc(OCCCCCC(=O)NO)cc2)cc(OC)c1OC [4b, (E)-N-Hydroxy-6-(4-(3-(3,4,5-Trimethoxyphenyl)Acryloyl)Phenoxy) Hexanamide]
EGFR [1]
  IC50: 0.063 ± 0.002 µM
Caspase-3
  Caspase-3 Conc: 483.2 pg/mL and 483.2 ± 14.72 pg/mL
Caspase-8; HepG2, versus control
  Caspase-8 Fold Change: 3.15 fold
Caspase-8; HepG2 cancer cell line
  Caspase-8 Conc: 1.078 ng/mL and 1.078 ± 0.046 ng/mL
Bax; HepG2, versus control
  Bax Fold Change: 3.75 fold
Bax; HepG2 cancer cell line
  Bax Conc: 398.9 ± 14.3 pg/mL
Bcl-2
  Bcl-2 Fold Change: 0.42 fold
HepG2 cancer cell line [2]
  Comment (cell cycle arrest): cell cycle arrest at G1/S phase; also recorded: cell growth arrest at G1/S
HepG2 cancer cell line [2]; control 2.16
  %Pre-G1: 47.21%
HepG2 cancer cell line [2]; control 20.45
  %G2/M: 7.85%
HepG2 cancer cell line [2]; control 36.58
  %S: 39.11%
HepG2 cancer cell line [2]; control 42.97
  %G0–G1: 53.04%
HepG2 cancer cell line [3]; control 0.12
  Apoptosis Late: 24.67
HepG2 cancer cell line [3]; control 0.12%
  percentage of cell apoptosis (late; upper right quadrant Annexin V/PI): 24.67%
HepG2 cancer cell line [3]; control 0.34
  Apoptosis Early: 9.33
HepG2 cancer cell line [3]; control 1.7
  Necrosis: 13.21
HepG2 cancer cell line [3]; control 2.16
  Apoptosis Total: 47.21
EGFR [4]
  EGFR expression (Western blot): decrease
HDAC6 [5]
  HDAC6 expression (Western blot): decrease
A549
  IC50: 0.797 ± 0.04 µM
MCF-7
  IC50: 0.621 ± 0.03 µM
HepG2
  IC50: 0.536 ± 0.03 µM
HCT116
  IC50: 1.21 ± 0.07 µM
HDAC1
  IC50: 0.148 µM
HDAC2
  IC50: 0.168 µM
HDAC4
  IC50: 5.85 µM
HDAC6 [6]
  IC50: 0.06 µM
HDAC8
  IC50: 2.26 µM
